{"source": "ChEMBL document CHEMBL3272184", "key": {"[1]": {"biological_target": "T1, Catechol O-methyltransferase (Rattus norvegicus) (UniProt P22734)", "T1 sequence (whole entry)": "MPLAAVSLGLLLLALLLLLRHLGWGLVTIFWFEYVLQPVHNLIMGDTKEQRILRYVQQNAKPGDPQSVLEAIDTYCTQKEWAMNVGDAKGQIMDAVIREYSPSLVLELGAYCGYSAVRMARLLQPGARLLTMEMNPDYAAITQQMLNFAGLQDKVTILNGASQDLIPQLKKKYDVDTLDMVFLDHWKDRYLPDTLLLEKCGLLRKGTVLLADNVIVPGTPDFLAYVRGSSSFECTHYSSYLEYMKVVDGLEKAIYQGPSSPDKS", "assay": "Inhibition of Sprague-Dawley rat liver catechol O-methyltransferase using 24 to 210 uM S-adenosylmethionine substrate"}, "[2]": {"biological_target": "T2, Phenylethanolamine N-methyltransferase (Bos taurus) (UniProt P10938)", "T2 sequence (whole entry)": "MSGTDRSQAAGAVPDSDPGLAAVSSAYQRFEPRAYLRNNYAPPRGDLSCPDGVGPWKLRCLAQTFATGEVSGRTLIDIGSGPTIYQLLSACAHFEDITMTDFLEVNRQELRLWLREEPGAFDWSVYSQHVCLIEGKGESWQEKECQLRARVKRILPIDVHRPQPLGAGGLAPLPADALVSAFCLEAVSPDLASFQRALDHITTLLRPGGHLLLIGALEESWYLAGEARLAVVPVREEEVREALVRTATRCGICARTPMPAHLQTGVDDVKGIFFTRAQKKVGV", "assay": "Inhibition of bovine adrenal medulla phenylethanolamine N-methyltransferase using 24 to 210 uM S-adenosylmethionine substrate"}, "[3]": {"biological_target": "T3, Acetylserotonin O-methyltransferase (Bos taurus) (UniProt P10950)", "T3 sequence (whole entry)": "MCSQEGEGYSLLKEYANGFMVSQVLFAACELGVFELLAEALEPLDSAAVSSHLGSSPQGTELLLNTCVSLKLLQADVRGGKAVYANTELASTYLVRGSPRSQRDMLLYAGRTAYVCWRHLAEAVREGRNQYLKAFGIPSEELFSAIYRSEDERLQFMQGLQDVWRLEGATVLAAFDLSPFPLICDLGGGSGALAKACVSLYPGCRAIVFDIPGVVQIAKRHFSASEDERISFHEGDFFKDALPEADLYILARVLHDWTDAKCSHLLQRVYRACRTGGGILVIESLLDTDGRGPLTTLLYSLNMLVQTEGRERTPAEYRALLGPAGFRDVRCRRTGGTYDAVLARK", "assay": "Inhibition of bovine pineal gland hydroxyindole O-methyltransferase using 24 to 210 uM S-adenosylmethionine substrate"}}, "data": [{"smiles": "Nc1ncnc2c1ncn2[C@@H]1O[C@H](CSCC[C@H](N)C(=O)O)[C@@H](O)[C@H]1O", "values": [{"measurement": "Kis", "setting": "[1]", "value": 36.3, "unit": "µM"}, {"measurement": "Kis", "setting": "[2]", "value": 29, "unit": "µM"}, {"measurement": "Kis", "setting": "[3]", "value": 18.5, "unit": "µM"}]}, {"smiles": "Nc1ncnc2c1ncn2[C@@H]1C[C@@H](CSCC[C@H](N)C(=O)O)[C@@H](O)[C@H]1O", "values": [{"measurement": "Kis", "setting": "[3]", "value": 51.8, "unit": "µM"}]}]}
